In patent US12209096B2, “Compounds and compositions for inducing chondrogenesis” (NOVARTIS AG, priority 2017, dated 2025):
pEC50, pIC50: −log10 of the molar value.

Experiments:
C3H10T1/2 cell line = assay: alkaline phosphatase assay in C3H10T1/2; type: cell-based; settings: Mus musculus, C3H 10T1/2, 144 h, alkaline phosphatase assay in C3H10T1/2, 6 days; for Emax: read-out: (D) % Efficacy; for pIC50: read-out: (D) IC50
Description: To initiate differentiation in C3H10T1/2, Clone 8 (ATCC cat #CCL-226), 4,000 cells were plated/well in 384 Perkin Elmer CellCarrier Ultra plate in DMEM/High glucose (HyClone cat #SH30022.01) containing 10% FBS and 1× Antibiotic/Antimycotic (HyClone cat #SV30079.01). After 24 hours the test compound was then added to each well at the indicated dose. The cultures were grown at 37° C. for 6 days.
To detect the presence of hypertrophic cells, C3H10T1/2 were fixed with 4% paraformaldehyde and Hoeschst dye for 20 minutes, rinsed in PBS, then stained with Fast Blue RR Salt with Naphthol AS-MX Phosphate Alkaline Solution.
The ALP staining was imaged by fluoresecent microscopy, using the 561 wavelength, and/or quantified by high content imagining with the ImageXpress Micro Confocal (Molecular Devices, Sunnyvale, CA). Data analyses were performed with the customized multiwavelength cell-scoring application looking at the number of ALP positive cells per well.

NHACs = assay: calcium flux assay; type: cell-based, human; settings: Homo sapiens; for Emax: read-out: (A) % Efficacy
Procedure, shortened: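 Normal human articular chondrocytes plated at 2000 cells/well and loaded 24 h later with Calcium 5 dye in HBSS/HEPES with 5 mM probenecid for 1 h at room temperature. Test compound added at indicated dose; fluorescence (ex 470–495/em 515–575 nm) recorded on FLIPR before and after addition.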

SMILES: O=C(Nc1cnc(Cl)c(Cl)c1)[C@H]1[C@@H]2O[C@@H]([C@H]3C[C@H]32)[C@@H]1c1cncnc1 [Example 75, (1S,2S,4R,5R,6R,7S)—N-(5,6-dichloropyridin-3-yl)-7-(pyrimidin-5-yl)-8-oxatricyclo[3.2.1.0^2,4]octane-6-carboxamide]
- Emax (C3H10T1/2 cell line): 45%
- pIC50 (C3H10T1/2 cell line): < 4.70
- pEC50 (NHACs): 5.36
- Emax (NHACs): 73%

SMILES: Cn1cc([C@H]2[C@H]3O[C@H](C[C@@H]3O)[C@@H]2C(=O)Nc2ccc(Cl)c(Cl)c2)cn1 [Example 152, (1R,2R,3S,4R,5S)—N-(3,4-dichlorophenyl)-5-hydroxy-3-(1-methyl-1H-pyrazol-4-yl)-7-oxabicyclo[2.2.1]heptane-2-carboxamide]
- Emax (C3H10T1/2 cell line): 61%
- pIC50 (C3H10T1/2 cell line): 5.70
- pEC50 (NHACs): 4.92
- Emax (NHACs): 44%

SMILES: Cc1cc([C@H]2[C@H]3O[C@H](C[C@@H]3F)[C@@H]2C(=O)Nc2ccc(Cl)c(Cl)c2)ccn1 [Example 105, (1R,2R,3S,4R,5S)—N-(3,4-dichlorophenyl)-5-fluoro-3-(2-methylpyridin-4-yl)-7-oxabicyclo[2.2.1]heptane-2-carboxamide]
- Emax (C3H10T1/2 cell line): 68%
- pIC50 (C3H10T1/2 cell line): 5.77
- pEC50 (NHACs): 5.09
- Emax (NHACs): 106%

SMILES: Cc1cc([C@@H]2[C@@H]3O[C@@H](C[C@H]3O)[C@H]2C(=O)Nc2ccc(Cl)c(Cl)c2)ccn1 [Example 77c, (1S,2S,3R,4S,5R)-N-(3,4-dichlorophenyl)-5-hydroxy-3-(2-methylpyridin-4-yl)-7-oxabicyclo[2.2.1]heptane-2-carboxamide]
- Emax (C3H10T1/2 cell line): 72%
- pIC50 (C3H10T1/2 cell line): 5.41
- pEC50 (NHACs): 4.89
- Emax (NHACs): 72%

SMILES: Cc1ncc([C@H]2[C@H]3O[C@H](C[C@@H]3O)[C@@H]2C(=O)Nc2ccc(Cl)c(Cl)c2)cn1 [Example 148, (1R,2R,3S,4R,5S)—N-(3,4-dichlorophenyl)-5-hydroxy-3-(2-methylpyrimidin-5-yl)-7-oxabicyclo[2.2.1]heptane-2-carboxamide]
- Emax (C3H10T1/2 cell line): 58%
- pIC50 (C3H10T1/2 cell line): 4.74
- pEC50 (NHACs): 5.11
- Emax (NHACs): 51%

SMILES: Cc1cc([C@H]2[C@H]3O[C@H](C[C@H]3NC3CCOCC3)[C@@H]2C(=O)Nc2ccc(Cl)c(Cl)c2)ccn1 [Example 169, (1R,2R,3S,4R,5R)—N-(3,4-dichlorophenyl)-3-(2-methylpyridin-4-yl)-5-((tetrahydro-2H-pyran-4-yl)amino)-7-oxabicyclo[2.2.1]heptane-2-carboxamide]
- Emax (C3H10T1/2 cell line): 54%
- pIC50 (C3H10T1/2 cell line): < 4.70
- pEC50 (NHACs): < 4.30
- Emax (NHACs): 69%

SMILES: Cc1cc([C@H]2[C@H]3O[C@H]([C@@H]4C[C@@H]43)[C@@H]2C(=O)Nc2cccc(OC(F)(F)F)c2)ccn1 [Example 69, (1S,2S,4R,5R,6R,7S)-7-(2-methylpyridin-4-yl)-N-(3-(trifluoromethoxy)phenyl)-8-oxatricyclo[3.2.1.0^2,4]octane-6-carboxamide]
- Emax (C3H10T1/2 cell line): 63%
- pIC50 (C3H10T1/2 cell line): < 4.70
- pEC50 (NHACs): 4.68
- Emax (NHACs): 180%

SMILES: Cc1cc([C@H]2[C@H]3O[C@H]([C@@H]4C[C@@H]43)[C@@H]2C(=O)Nc2cccc(C(F)(F)F)c2)ccn1 (single isomer, unassigned) [Example 121a]
- Emax (C3H10T1/2 cell line): 80%
- pIC50 (C3H10T1/2 cell line): 5.35
- pEC50 (NHACs): 5.57
- Emax (NHACs): 231%

SMILES: Cn1ccc([C@H]2[C@H]3O[C@H](C[C@@H]3O)[C@@H]2C(=O)Nc2ccc(Cl)c(Cl)c2)n1 [Example 153, (1R,2R,3S,4R,5S)—N-(3,4-dichlorophenyl)-5-hydroxy-3-(1-methyl-1H-pyrazol-3-yl)-7-oxabicyclo[2.2.1]heptane-2-carboxamide]
- Emax (C3H10T1/2 cell line): 46%
- pIC50 (C3H10T1/2 cell line): < 4.70
- pEC50 (NHACs): 4.72
- Emax (NHACs): 121%

SMILES: O=C(Nc1ccc(Cl)c(Cl)c1)[C@H]1[C@@H]2O[C@@H]([C@H]3C[C@H]32)[C@@H]1c1cccc(C(F)(F)F)n1 [Example 120, (1S,2S,4R,5R,6R,7S)—N-(3,4-dichlorophenyl)-7-(6-(trifluoromethyl)pyridin-2-yl)-8-oxatricyclo[3.2.1.0^2,4]octane-6-carboxamide]
- Emax (C3H10T1/2 cell line): 119%
- pIC50 (C3H10T1/2 cell line): 5.36
- pEC50 (NHACs): 4.70
- Emax (NHACs): 102%

SMILES: O=C(Nc1ccc(Cl)c(Cl)c1)[C@@H]1[C@H](c2ccnc(C(F)(F)F)c2)[C@@H]2O[C@H]1C[C@H]2O (single isomer, unassigned) [Example 54b]
- Emax (C3H10T1/2 cell line): 46%
- pIC50 (C3H10T1/2 cell line): < 4.70
- pEC50 (NHACs): < 4.30
- Emax (NHACs): 16%

SMILES: COc1ccc(NC(=O)[C@H]2[C@@H]3O[C@@H]([C@H]4C[C@H]43)[C@@H]2c2cccc(C(F)(F)F)n2)cn1 [Example 128, (1S,2S,4R,5R,6R,7S)—N-(6-methoxypyridin-3-yl)-7-(6-(trifluoromethyl)pyridin-2-yl)-8-oxatricyclo[3.2.1.0^2,4]octane-6-carboxamide]
- Emax (C3H10T1/2 cell line): 39%
- pIC50 (C3H10T1/2 cell line): < 4.70
- pEC50 (NHACs): < 4.30
- Emax (NHACs): 27%

SMILES: Cc1cc([C@@H]2[C@@H]3O[C@@H](C[C@@H]3F)[C@H]2C(=O)Nc2ccc(Cl)c(Cl)c2)ccn1 (single isomer, unassigned) [Example 94]
- Emax (C3H10T1/2 cell line): 0%
- pIC50 (C3H10T1/2 cell line): < 4.70
- pEC50 (NHACs): 4.74
- Emax (NHACs): 157%

SMILES: Cc1cc([C@@H]2[C@@H]3O[C@@H](C[C@H]3O)[C@H]2C(=O)Nc2cnc(Cl)c(Cl)c2)ccn1 [Example 84, (1S,2S,3R,4S,5R)-N-(5,6-dichloropyridin-3-yl)-5-hydroxy-3-(2-methylpyridin-4-yl)-7-oxabicyclo[2.2.1]heptane-2-carboxamide]
- Emax (C3H10T1/2 cell line): 31%
- pIC50 (C3H10T1/2 cell line): < 4.70
- pEC50 (NHACs): < 4.30
- Emax (NHACs): 61%

SMILES: Cc1cc([C@H]2[C@H]3O[C@H]([C@@H]4C[C@@H]43)[C@@H]2C(=O)Nc2ncc(C)s2)ccn1 [Example 70, (1S,2S,4R,5R,6R,7S)-7-(2-methylpyridin-4-yl)-N-(5-methylthiazol-2-yl)-8-oxatricyclo[3.2.1.0^2,4]octane-6-carboxamide]
- Emax (C3H10T1/2 cell line): 1%
- pIC50 (C3H10T1/2 cell line): < 4.70
- pEC50 (NHACs): < 4.30
- Emax (NHACs): 25%

SMILES: O=C(Nc1ccc(Cl)c(Cl)c1)[C@H]1[C@@H](c2ccnc(C(F)(F)F)c2)[C@H]2O[C@@H]1C[C@@H]2O (racemic) [Example 54, rac-(1R,2S,3S,4R,5S)—N-(3,4-dichlorophenyl)-5-hydroxy-3-(2-(trifluoromethyl)pyridin-4-yl)-7-oxabicyclo[2.2.1]heptane-2-carboxamide]
- Emax (C3H10T1/2 cell line): 35%
- pIC50 (C3H10T1/2 cell line): < 4.70
- pEC50 (NHACs): < 4.30
- Emax (NHACs): 22%

SMILES: O=C(Nc1cnc(Cl)c(Cl)c1)[C@H]1[C@@H]2O[C@@H]([C@H]3C[C@H]32)[C@@H]1c1ccnc(F)c1F [Example 124, (1S,2S,4R,5R,6R,7S)—N-(5,6-dichloropyridin-3-yl)-7-(2,3-difluoropyridin-4-yl)-8-oxatricyclo[3.2.1.0^2,4]octane-6-carboxamide]
- Emax (C3H10T1/2 cell line): 59%
- pIC50 (C3H10T1/2 cell line): 4.77
- pEC50 (NHACs): 5.55
- Emax (NHACs): 160%
